What was measured:
Assay in all cases: Post-emergence herbicidal action, greenhouse pot trial
Format in all cases: in vivo
[1] = test system: Abutilon theophrasti (ABUTH); conditions: visual rating after about 3 weeks; for pest or weed control at 320 g/ha: Abutilon theophrasti, 504 h, read-out: Post-emergence effect at 320 g/ha against ABUTH in %
Method: (§1) Seeds of monocotyledonous and dicotyledonous weeds and crop plants are placed in sandy loam in plastic or organic planting pots, covered with soil and cultivated in a greenhouse under controlled growth conditions. 2 to 3 weeks after sowing, the trial plants are treated at the one-leaf stage. The compounds of the invention, formulated in the form of wettable powders (WP) or as emulsion concentrates (EC), are then sprayed onto the green parts of the plants as aqueous suspension or emulsion with addition of 0.5% additive at a water application rate equivalent to 600 l/ha. After about 3 weeks of keeping the trial plants in the greenhouse under optimum growth conditions, the effect of the preparations is rated visually in comparison to untreated controls. For example, 100% activity=the plants have died, 0% activity=like control plants.
(§2) Tables B1 to B14 below show the effects of selected compounds of the general formula (I) according to Table 1 on various harmful plants and at an application rate corresponding to 320 g/ha or lower, which were obtained by the trial procedure specified above. The appendices “a”, “b” and “c” give differentiation by dosage used with otherwise the same harmful plants tested.
(§3) As shown by results from Tables B1 to B19, inventive compounds of the general formula (I) in the case of post-emergence treatment have good herbicidal efficacy against harmful plants, for example Abutilon theophrasti (ABUTH), Alopecurus myosuroides (ALOMY), Amaranthus retroflexus (AMARE), Avena fatua (AVEFA), Digitaria sanguinalis (DIGSA), Echinochloa crus-galli (ECHCG), Bassia scoparia (KCHSC), Lolium rigidum (LOLRI), Matricaria inodora (MATIN), Pharbitis purpurea (PHBPU), Polygonum convolvulus (POLCO), Setaria viridis (SETVI), Veronica persica (VERPE) and Viola tricolor (VIOTR) at an application rate of 320 g of active substance or less per hectare, and good crop plant compatibility in the case of organisms such as Oryza sativa (ORYSA), Zea mays (ZEAMX), Brassica napus (BRSNW), Glycine max (GLXMA) and Triticum aestivum (TRZAS) at an application rate of 320 g or less per hectare.

[2] = test system: Alopecurus myosuroides (ALOMY); conditions: Alopecurus myosuroides, 504 h, 320 g/ha, visual rating after about 3 weeks, read-out: Post-emergence effect at 320 g/ha against ALOMY in %
Method: as §1, §2, §3

Bassia scoparia (KCHSC) = conditions: Bassia scoparia, 504 h, 320 g/ha, read-out: Post-emergence effect against KCHSC
Method: as §1, §2, §3

[3] = test system: Pharbitis purpurea (PHBPU); conditions: 320 g/ha, visual rating after about 3 weeks; for pest or weed control at 320 g/ha: Ipomoea purpurea, 504 h, read-out: Post-emergence effect at 320 g/ha against PHBPU in %
Method: as §1, §2, §3

[4] = test system: Polygonum convolvulus (POLCO); conditions: visual rating after about 3 weeks; for pest or weed control at 320 g/ha: read-out: Post-emergence effect at 320 g/ha against POLCO in %
Method: as §1, §2, §3

Viola tricolor (VIOTR) = conditions: for pest or weed control at 320 g/ha / pest or weed control at 80 g/ha: Viola tricolor, 504 h, read-out: Post-emergence effect against VIOTR
Method: as §1, §2, §3

[5] = test system: Amaranthus retroflexus (AMARE); conditions: visual rating after about 3 weeks; for pest or weed control at 320 g/ha: Amaranthus retroflexus, 504 h, read-out: Post-emergence effect at 320 g/ha against AMARE in %
Method: as §1, §2, §3

Avena fatua (AVEFA) = conditions: 320 g/ha, visual rating after about 3 weeks
Method: as §1, §2, §3

[6] = test system: Digitaria sanguinalis (DIGSA); conditions: visual rating after about 3 weeks; for pest or weed control at 320 g/ha: Digitaria sanguinalis, 504 h, read-out: Post-emergence effect at 320 g/ha against DIGSA in %
Method: as §1, §2, §3

[7] = test system: Echinochloa crus-galli (ECHCG); conditions: visual rating after about 3 weeks; for pest or weed control at 320 g/ha / pest or weed control at 80 g/ha: Echinochloa crus-galli, 504 h; for pest or weed control at 320 g/ha: read-out: Post-emergence effect at 320 g/ha against ECHCG in %; for pest or weed control at 80 g/ha: read-out: Post-emergence effect at 80 g/ha against ECHCG in %
Method: as §1, §2, §3

[8] = test system: Matricaria inodora (MATIN); conditions: 320 g/ha, visual rating after about 3 weeks; for pest or weed control at 320 g/ha: Tripleurospermum inodorum, 504 h, read-out: Post-emergence effect at 320 g/ha against MATIN in %
Method: as §1, §2, §3

Setaria viridis (SETVI) = conditions: visual rating after about 3 weeks; for pest or weed control at 320 g/ha: Setaria viridis, 504 h, read-out: Post-emergence effect at 320 g/ha against SETVI in %
Method: as §1, §2, §3

Lolium rigidum (LOLRI) = conditions: Lolium rigidum, 504 h, 320 g/ha, visual rating after about 3 weeks, read-out: Post-emergence effect at 320 g/ha against LOLRI in %
Method: as §1, §2, §3

[9] = Fallopia convolvulus, 504 h, 320 g/ha

## CSC(Oc1nn(-c2cnccn2)c(-c2ccc(F)nc2)c1Br)C(=O)O (stereo not drawn) [Example I-36]
[1]; 320 g/ha
  pest or weed control at 320 g/ha: 80%
[2]
  pest or weed control at 320 g/ha: 90%
Bassia scoparia (KCHSC)
  pest or weed control at 320 g/ha: 90%
[3]
  pest or weed control at 320 g/ha: 90%
[4]; [9]
  pest or weed control at 320 g/ha: 90%
Viola tricolor (VIOTR); 320 g/ha
  pest or weed control at 320 g/ha: 80%

## COC(=O)C(Oc1nn(-c2ncccc2F)c(-c2ccc(F)nc2)c1Br)SC (single isomer, unassigned) [Example I-27]
[1]; 80 g/ha
  Post-emergence effect at 80 g/ha against ABUTH in %: 80%
[1]; 320 g/ha
  Post-emergence effect at 320 g/ha against ABUTH in %: 90%
[5]; 80 g/ha
  Post-emergence effect at 80 g/ha against AMARE in %: 80%
[5]; 320 g/ha
  Post-emergence effect at 320 g/ha against AMARE in %: 80%
Avena fatua (AVEFA)
  Post-emergence effect at 320 g/ha against AVEFA in %: 90%
Bassia scoparia (KCHSC)
  pest or weed control at 320 g/ha: 80%
[6]; 320 g/ha
  Post-emergence effect at 320 g/ha against DIGSA in %: 90%
[7]; 320 g/ha
  Post-emergence effect at 320 g/ha against ECHCG in %: 90%
[8]
  Post-emergence effect at 320 g/ha against MATIN in %: 80%
[3]
  Post-emergence effect at 320 g/ha against PHBPU in %: 100%
[4]; 20 g/ha
  Post-emergence effect at 20 g/ha against POLCO in %: 80%
[4]; 80 g/ha
  Post-emergence effect at 80 g/ha against POLCO in %: 80%
[4]; 320 g/ha
  Post-emergence effect at 320 g/ha against POLCO in %: 90%
Setaria viridis (SETVI); 320 g/ha
  Post-emergence effect at 320 g/ha against SETVI in %: 90%
Viola tricolor (VIOTR); 80 g/ha
  Post-emergence effect against VIOTR: 80%
Viola tricolor (VIOTR); 320 g/ha
  Post-emergence effect against VIOTR: 90%

## CCOC(=O)C(Oc1nn(-c2ccccc2)c(-c2ccc(F)nc2)c1Br)SC (stereo not drawn) [Example I-04]
[1]; 320 g/ha
  pest or weed control at 320 g/ha: 80%
[6]; 320 g/ha
  pest or weed control at 320 g/ha: 80%
[7]; 320 g/ha
  pest or weed control at 320 g/ha: 80%
Lolium rigidum (LOLRI)
  pest or weed control at 320 g/ha: 90%
[8]
  pest or weed control at 320 g/ha: 90%
[4]; Fallopia convolvulus, 504 h, 80 g/ha, read-out: Post-emergence effect at 80 g/ha against POLCO in %
  pest or weed control at 80 g/ha: 80%
[4]; [9]
  pest or weed control at 320 g/ha: 90%
Setaria viridis (SETVI); 320 g/ha
  pest or weed control at 320 g/ha: 90%
Viola tricolor (VIOTR); 80 g/ha
  pest or weed control at 80 g/ha: 80%
Viola tricolor (VIOTR); 320 g/ha
  pest or weed control at 320 g/ha: 90%

## COC(=O)C(Oc1nn(-c2ccccc2F)c(-c2ccc(F)nc2)c1I)SC (stereo not drawn) [Example I-52]
[1]; 320 g/ha
  pest or weed control at 320 g/ha: 80%
[5]; 320 g/ha
  pest or weed control at 320 g/ha: 90%
[6]; 320 g/ha
  pest or weed control at 320 g/ha: 80%
[7]; 320 g/ha
  pest or weed control at 320 g/ha: 90%
Lolium rigidum (LOLRI)
  pest or weed control at 320 g/ha: 100%
[8]
  pest or weed control at 320 g/ha: 80%
[4]; [9]
  pest or weed control at 320 g/ha: 90%
Setaria viridis (SETVI); 80 g/ha
  Post-emergence effect at 80 g/ha against SETVI in %: 80%
Setaria viridis (SETVI); 320 g/ha
  pest or weed control at 320 g/ha: 90%
Viola tricolor (VIOTR); 80 g/ha
  pest or weed control at 80 g/ha: 80%
Viola tricolor (VIOTR); 320 g/ha
  pest or weed control at 320 g/ha: 90%

## CSC(Oc1nn(-c2ncccc2F)c(-c2ccc(F)nc2)c1Cl)C(=O)O (stereo not drawn) [Example I-31]
[2]
  pest or weed control at 320 g/ha: 80%
[5]; 320 g/ha
  pest or weed control at 320 g/ha: 80%
Avena fatua (AVEFA); Avena fatua, 504 h, read-out: Post-emergence effect at 320 g/ha against AVEFA in %
  pest or weed control at 320 g/ha: 80%
[6]; 320 g/ha
  pest or weed control at 320 g/ha: 80%
[7]
  pest or weed control at 80 g/ha: 80%
[7]; 320 g/ha
  pest or weed control at 320 g/ha: 90%
[8]
  pest or weed control at 320 g/ha: 80%
[3]
  pest or weed control at 320 g/ha: 80%
[4]; [9]
  pest or weed control at 320 g/ha: 80%
Setaria viridis (SETVI); 320 g/ha
  pest or weed control at 320 g/ha: 80%

## CCOC(=O)C(Oc1nn(-c2ccccc2F)c(-c2ccc(F)nc2)c1Br)SC (single isomer, unassigned) [Example I-30]
[2]
  pest or weed control at 320 g/ha: 90%
[6]; 80 g/ha
  Post-emergence effect at 80 g/ha against DIGSA in %: 80%
[6]; 320 g/ha
  pest or weed control at 320 g/ha: 90%
[7]
  pest or weed control at 80 g/ha: 80%
[7]; 320 g/ha
  pest or weed control at 320 g/ha: 80%
Lolium rigidum (LOLRI)
  pest or weed control at 320 g/ha: 80%
[8]
  pest or weed control at 320 g/ha: 80%
[3]
  pest or weed control at 320 g/ha: 80%
Setaria viridis (SETVI); 320 g/ha
  pest or weed control at 320 g/ha: 80%
Viola tricolor (VIOTR); 320 g/ha
  pest or weed control at 320 g/ha: 90%

Reference: US20250026724A1, “(1,4,5-TRISUBSTITUTED 1H-PYRAZOL-3-YL)OXY-2-ALKYLTHIOALKYL ACIDS AND -ALKYL ACID DERIVATIVES, SALTS THEREOF AND USE THEREOF AS ACTIVE HERBICIDAL INGREDIENTS” (BAYER AKTIENGESELLSCHAFT, priority 2021, published 2025)
